We go through two molecules from patent publication US5574059A, “Treating disorders mediated by vascular smooth muscle cell proliferation” (priority 1995, dated 1996).

Each structure is given as a SMILES string. Like-named read-outs stand apart in the source and are kept apart here.

One assay concerns I2 imidazoline receptors. The experiment in a line: inhibition of 3H-idazoxan (5 nM) binding to rat aortic smooth muscle cell membranes. The note with it: Table 2; 3H-idazoxan 5 nM; rat aortic smooth muscle cell membranes; read-out: Ki. The procedure: Binding to I2 imidazoline receptors is determined by the following assay. Membranes are prepared from cultured cells for ligand binding as described in Regunathan, S., et al, Biochem. Pharmacol. 45, 1667-1675 (1993) and Regunathan, S., et al, J. Neurosci. Res. 34, 681-688 (1993) and the disclosure in these on this is incorporated herein by reference. In particular, harvested rat aortic smooth muscle cells are homogenized in Hepes-sucrose buffer (pH 7.4) with a Teflon-glass homogenizer and centrifuged at 1000 × g for 10 minutes. The pellets are suspended in ice-cold Tris-HCl buffer (pH 7.7) with 5mM ethylene diamine tetracetic acid and homogenized using a Polytron (Brinkman Instruments) for 10 seconds. The homogenate is centrifuged at 40,000 × g for 30 minutes to produce a membrane pellet. The membrane pellet is washed three times by resuspending in buffer and re-centrifuging. The washed pellet is suspended in fresh Tris-HCl buffer (pH 7.4) to provide approximately 100 μg protein per assay tube. Binding assays are performed in Tris-HCl buffer (pH 7.7) using 5 nM of […]. Non-specific binding is defined by 100 μM of unlabelled idazoxan which will inhibit the specific binding of ^3 H-idazoxan. Thus the binding remaining in the presence 100 μM of idazoxan is due to non-specific binding and this will be substracted from total binding to calculate the specific binding. Following incubation at 25° C. for 30 minutes, reaction is terminated by rapid vacuum filtration over Whatman GF/B filters and washed with 10 ml of ice-cold buffer. Filters are suspended in scintillation fluid and radioactivity counted in a liquid scintillation counter. Membrane protein is assayed by Coomassie Blue method (Pierce) using bovine serum albumin as standard.
Determination of inhibition constant (Ki) for each drug is determined as follows: The binding of ^3 H-idazoxan to membranes of vascular smooth muscle cells is determined in the presence of 0.1 nM to 100 μM concentrations of potential drug. The percent inhibition of specific binding of ^3 H-idazoxan by each concentration is calculated and plotted against concentration. The data is analyzed by non-linear curve fitting program, LIGAND and the IC50 value for each potential drug is calculated. The affinity for each drug (Ki) for I2 imidazoline receptors is calculated using the formula Ki =IC50 /1+L/Kd where L is the concentration of ^3 H-idazoxan used for binding and Kd is the dissociation constant for ^3 H-idazoxan for I2 imidazoline receptors. The dissociation constant (Kd) is determined by Scatchard analysis of the saturation binding of ^3 H-idazoxan using the formula [formula] where B and F are the amount of bound and free ligand, respectively, and Bmax is the number of binding sites.
Primary cultures of rat-aortic smooth muscle cells were prepared by a modification (described in Erlinge, Do, et al, Am. J. Physiol. 265, H1089-1097, 1993) of the method of Meyer-Lehnert and Schrier (Meyer-Lehnert, H., et al, Hypertension 13,350-361, 1989), the disclosure of these cited articles being incorporated herein by reference. Briefly, rats were killed by anesthetic overdose and the aorta were removed and incubated with collagenase (2 mg/ml) in Dulbecco's modified Eagle's minimum essential medium (DMEM). The vessel was stripped of adventitia, cut longitudinally and the intima scraped away. After further collagenase treatment, the remaining tissue was passed 20 times through 18 and 16 gauge needles. The resulting cell suspension was centrifuged at 500 × g for 5 minutes and resuspended in DMEM containing penicillin (100 units/ml), streptomycin (100 μg/ml), 2 mM L-glutamine and 10% fetal calf serum. The suspended cells were plated in T-75 flasks, cultured until confluent, and subcultured in 100 mm plates. The confluent cells were harvested and membranes were prepared. Cell viability was determined by trypan blue exclusion.

Assay [1] deals with rat aortic smooth muscle cells. Description: serum-stimulated proliferation, 3H-thymidine incorporation into DNA. Type of assay: cell-based. The note with it: for IC50: Rattus norvegicus, read-out: 3H-thymidine incorporated (IC50). The procedure:
Inhibition of serum-stimulated proliferation of rat aortic smooth muscle cells is determined as follows: The antiproliferative effect of potential drug is determined by measuring the incorporation of ^3 H-thymidine into cellular DNA. Exposure of quiescent vascular smooth muscle cell to serum, which contains many growth factors, results in a large increase in cellular proliferation as measured by ^3 H-thymidine incorported into DNA. The inhibitory effect of potential drug on serum-stimulated proliferation is tested by adding a drug before the addition of serum and determining if the serum-stimulated proliferation is reduced. […] In that event, antagonizing of the antiproliferative effect of idazoxan is determined by adding antagonist before the addition of idazoxan to serum-stimulated vascular smooth muscle cells.
In this experiment, the proliferation of vascular smooth muscle cells was determined by measuring DNA replication. The incorporation of ^3 H-thymidine into DNA was used to measure the replication of DNA as described in Erlinge, D., et al, Am. J. Physiol. 265, H1089-H1097 (1993) which is incorporated herein by reference.
Rat aortic smooth muscle cells prepared as described in In Vitro Example 1 were plated into 24-well plates at a density of about 30,000 cells/well in 10% fetal calf serum (FCS). After 48 hours, the cells were starved in 0.5% FCS for another 48 hours to decrease proliferation and induce quiescence. The medium was replaced by serum-free medium 24 hours prior to addition of drug (drugs are described below) and 10% fetal calf serum or only 10% fetal calf serum in the case of the control. The cells were then incubated for 24 hours and ^3 H-thymidine (1 μCi/well) was added at hour 20. At the end of the 24 hour period, the medium was aspirated and the cells were washed three times with phosphate-buffered saline and twice with ice-cold trichloroacetic acid. Fixed cells were then solubilized in 0.2M NaOH and sonicated. A 100 μl aliquot was used for scintillation counting.

A short description of assay [2]: Example I: patient with intermittent claudication, iliac artery plaques. Type of assay: in vivo, human. The note with it: over 30 days oral; idazoxan 50 and 75 mg/day, UK 14,304 125, naphazoline 125, cirazoline 75, agmatine 900 mg/day. The source says: A person presents with progressive symptoms of intermittent claudication in both legs.
A short description of assay [3]: Example II: patient with narrowing of right common carotid artery, balloon angiography. The class given is in vivo, human. The following applies: idazoxan 50 or 75 mg/day two weeks before and 3 months after balloon angiography; UK 14,304 125, cirazoline 60, naphazoline 125, agmatine 900 mg/day. The protocol:
A person presents with a history of intermittent brief episodes of transient monocular blindness in the right eye associated with clumsiness and weakness of the left arm and leg. Angiography indicates substantial narrowing of the right common carotid artery. They are with treated with idazoxan at a dosage of 50 or 75 mg/day for two weeks preceding balloon angiography and for 3 months thereafter.

Assay [4] is described as follows: Example III: patient with coronary artery disease, angioplasty. The note with it: idazoxan 50 mg/day continued for 3 months; substitutes, dose not stated. The class given is in vivo, human. The procedure: A person presents with the onset of chest pain on exertion. […] Ten days before angioplasty, the patient is begun on 75 or 100 mg/day of idazoxan. […] Treatment with 50 mg/day idazoxan is continued for 3 months.

Assay [5] in a line: Example IV: patient with fibromuscular dysplasia of the renal artery, angioplasty. Type of assay: in vivo, human. The note with it: idazoxan 75 mg/day; UK 14,304 60, naphazoline 125, cirazoline 60, agmatine 900 mg/day.
Assay [6] in a line: Example V: patient with Type I diabetes mellitus, overgrowth of retinal vessels. The class given is in vivo, human. The note with it: idazoxan 75 mg/day; UK 14,304 60, naphazoline 125, cirazoline 60, agmatine 900 mg/day. The text has this: A person with Type I diabetes mellitus and maintained on insulin presents with progressive symptoms of loss of visual acuity bilaterally with evidence on opthalmascopic examination of overgrowth of retinal vessels and hemorrhages.

[7] abbreviates: 10% fetal calf serum stimulated.

`NCCCCN=C(N)N` [Agmatine, 4-(aminobutylguanidine)]: the Ki (usually a measure of affinity in units of concentration, obtained from inhibition or displacement) in the assay with I2 imidazoline receptors is 0.24 ± 0.025 µM. In assay [1] (setting [7]), the “inhibition of vascular smooth muscle cell proliferation, in words” value was “weakly inhibited”. Further, in assay [1], the IC50 (as a rule, the concentration at which inhibition is half-maximal) is 340 ± 29 µM. Also, in assay [2], the “symptoms of intermittent claudication” value is “stabilization of symptoms”. In assay [3], the “symptoms and restenosis of the vessel” value is “comparable results”. Moreover, the “symptoms / restenosis after angioplasty” value in assay [4] was “comparable results, i.e., no restenosis”. Further, in assay [5], the “re-elevation of pressure / restenosis of the renal artery” value is listed as “comparable results, i.e., no restenosis”. The “progression and visual symptoms” value in assay [6] is “comparable results, i.e., no restenosis”.

On to `Brc1c(NC2=NCCN2)ccc2nccnc12` [UK 14,304, 5-bromo-N-(4,5-dihydro-1-H-imidazol-2-yl)-6-quinoxalinamine], for which the Ki in the assay on I2 imidazoline receptors came to 0.02 ± 0.0014 µM. Besides, the “inhibition of vascular smooth muscle cell proliferation, in words” value in assay [1] (setting [7]) is “potently inhibited”. For the same molecule, in assay [1] (10% fetal calf serum stimulated, 24 h), the IC50 was 15.6 ± 2.8 µM. In addition, in assay [2], the “symptoms of intermittent claudication” value was “stabilization of symptoms”. Moreover, in assay [3], the “symptoms and restenosis of the vessel” value is “comparable results”. Moreover, the “symptoms / restenosis after angioplasty” value in assay [4] was “comparable results, i.e., no restenosis”. Besides, in assay [5], the “re-elevation of pressure / restenosis of the renal artery” value was “comparable results, i.e., no restenosis”. In addition, the “progression and visual symptoms” value in assay [6] was “comparable results, i.e., no restenosis”.
